Where a name gives a salt, the structure may show the parent alone.
Experiments:
[1] = system: olfactory bulbectomized rats; assay: Hyperemotional reactivity (hyperemotional score) of olfactory bulbectomized rats; format: in vivo, rat; set-up: key to Hyperemotional score (mean ± S. E.), One day administration, Before administration / Hyperemotional score (mean ± S. E.), One day administration, After administration / Hyperemotional score (mean ± S. E.), Seven days administration, Before administration / Hyperemotional score (mean ± S. E.), Seven days administration, After administration: irritability score per Gomita et al. (1983) criteria
Protocol: SPF rats (Crlj: WI) were used in the test. The animal for olfactory bulbectomy was anesthetized with pentobarbital sodium (Nembutal R Injection, Dainippon Pharmaceutical, dose: 1 mL/kg (intraperitoneal administration)), and the head was fixed using a brain stereotaxic apparatus (ASI Instruments, Inc., NARISHIGE). After incising the head skin, holes are opened at right and left olfactory bulb regions of the skull using a dental drill (manufactured by MINITOR), and the right and left olfactory bulbs were removed by sucking them using an aspirator connected to a tip-removed oral sonde, and the head skin was stitched thereafter. In this connection, in the case of the animals for sham-operation, anesthesia, brain fixation and head skin incision were carried out in the same manner as in the animals for olfactory bulbectomy, holes are opened at right and left olfactory bulb regions of the skull and the head skin was stitched without carrying out suction removal of the olfactory bulbs. The rats after olfactory bulbectomy were put into a series of five stainless steel cages, each of which was partitioned into two parts with an acrylic board for individual rearing space, and individually reared under a dark condition. The rats were subjected to the following tests of (2) and (3).
• (a) Sham-operation group (12 animals); • (b) Vehicle control group (12 animals); • (c) 3 mg/kg administration group (12 animals) of (2R)-2-propyloctanoic acid; • (d) 10 mg/kg administration group (12 animals) of (2R)-2-propyloctanoic acid; • (e) 10 mg/kg administration group (12 animals) of Milnacipran hydrochloride. [Drug Administration]
As shown below, drug solution or vehicle was administered once a day for 8 days, a total of 8 times, at a respective liquid dose of 5 mL/kg. • (a) Sham-operation group: vehicle (0.1% by volume Tween 80) aqueous solution; • (b) Vehicle control group: vehicle (0.1% by volume Tween 80) aqueous solution; • (c) 3 mg/kg administration group of (2R)-2-propyloctanoic acid: a drug solution in which (2R)-2-propyloctanoic acid was prepared to be 0.6 mg/mL with the vehicle; • (d) 10 mg/kg administration group of (2R)-2-propyloctanoic acid: a drug solution in which (2R)-2-propyloctanoic acid was prepared to be 2.0 mg/mL with the vehicle; • (e) 10 mg/kg administration group of milnacipran hydrochloride: a drug solution in which Milnacipran hydrochloride was prepared to be 2.3 mg/mL with the vehicle (Milnacipran itself is included in 2.0 mg/mL). (2) Examination of the Activity for Hyperemotional Reactivity <Evaluation Method>
Evaluation of the hyperemotional reactivity was carried out (1) before the grouping, (2) from 1 hour to 1 hour and 10 minutes after administration of the 1 day drug administration, (3) before administration of the 7 days administration and (4) from 1 hour to 1 hour and 10 minutes after the administration (a total of 4 times), by scoring the degree of irritability once a rat in accordance with the following evaluation criteria of hyperemotional reactivity (hyperemotional score: prepared based on the method of Gomita et al. (Folia Pharmacologica Japonica, 82, 267, 1983). Additionally, all of the conditions of the evaluation were shot and recorded using a video camera (SSC-DC430, SONY) and handled as reference data.

[2] = system: olfactory bulbectomized rats; assay: Anxiolytic behavior on elevated plus maze of olfactory bulbectomized rats; format: in vivo, rat; details: dose 10 mg/kg once a day for 8 days; 5 minutes test 1 hour after 8 days administration
Protocol: SPF rats (Crlj: WI) were used in the test. The animal for olfactory bulbectomy was anesthetized with pentobarbital sodium (Nembutal R Injection, Dainippon Pharmaceutical, dose: 1 mL/kg (intraperitoneal administration)), and the head was fixed using a brain stereotaxic apparatus (ASI Instruments, Inc., NARISHIGE). After incising the head skin, holes are opened at right and left olfactory bulb regions of the skull using a dental drill (manufactured by […]), and the right and left olfactory bulbs were removed by sucking them using an aspirator connected to a tip-removed oral sonde, and the head skin was stitched thereafter. In this connection, in the case of the animals for sham-operation, anesthesia, brain fixation and head skin incision were carried out in the same manner as in the animals for olfactory bulbectomy, holes are opened at right and left olfactory bulb regions of the skull and the head skin was stitched without carrying out suction removal of the olfactory bulbs. The rats after olfactory bulbectomy were put into a series of five stainless steel cages, each of which was partitioned into two parts with an acrylic board for individual rearing space, and individually reared under a dark condition. The rats were subjected to the following tests of (2) and (3). • (a) Sham-operation group (12 animals); • (b) Vehicle control group (12 animals); • (c) 3 mg/kg administration group (12 animals) of (2R)-2-propyloctanoic acid; • (d) 10 mg/kg administration group (12 animals) of (2R)-2-propyloctanoic acid; • (e) 10 mg/kg administration group (12 animals) of Milnacipran hydrochloride. [Drug Administration] As shown below, drug solution or vehicle was administered once a day for 8 days, a total of 8 times, at a respective liquid dose of 5 mL/kg. • (a) Sham-operation group: vehicle (0.1% by volume Tween 80) aqueous solution; • (b) Vehicle control group: vehicle (0.1% by volume Tween 80) aqueous solution; • (c) 3 mg/kg administration group of (2R)-2-propyloctanoic acid: a drug solution in which (2R)-2-propyloctanoic acid was prepared to be 0.6 mg/mL with the vehicle; • (d) 10 mg/kg administration group of (2R)-2-propyloctanoic acid: a drug solution in which (2R)-2-propyloctanoic acid was prepared to be 2.0 mg/mL with the vehicle; • (e) 10 mg/kg administration group of milnacipran hydrochloride: a drug solution in which Milnacipran hydrochloride was prepared to be 2.3 mg/mL with the vehicle (Milnacipran itself is included in 2.0 mg/mL). (2) Examination of the Activity for Hyperemotional Reactivity <Evaluation Method> Evaluation of the anxiolytic behavior on an elevated plus maze was carried out once per animal for 5 minutes from 1 hour to 1 hour and 10 minutes after 8 days of the administration, in accordance with the following method. Each animal was softly put on a platform of elevated plus maze which is described later, toward one of the open arms. Thereafter, behavior of the animal was shot using a video camera (CCD-DC430, SONY) set up the elevated plus maze, and the images were analyzed by a video image behavior analyzing device (Etho Vision, manufactured by Noldus). Additionally, the images from the video camera were recorded and handled as reference data. In this connection, when the animal fell, it was regarded as staying on the open arm, and the animal was quickly returned to the place or the open arm where it was present just before the falling. The evaluation was carried out on the respective items shown by A to H (A: frequency of approach to the open arm, B: frequency of approach to the closed arm, C: frequency of approach to the platform, D: stayed time (second) on the open arm, E: stayed time (second) on the closed arm, F: stayed time (second) on the platform, G: defecation frequency on the open arm, platform and closed arm, and H: urination frequency on the open arm, platform and closed arm), by measuring A to F using the video image behavior analyzing device, and by measuring G and H after completion of the measurement. […]

## CCN(CC)C(=O)C1(c2ccccc2)CC1CN (stereo not drawn) [Milnacipran hydrochloride, reference compound]
[1]; dose 10 mg/kg once a day, 1 hour to 1 hour 10 minutes after 7 days administration
  Hyperemotional score (mean ± S. E.), Seven days administration, After administration: 7.6 ± 0.8
[1]; dose 10 mg/kg once a day, before administration of the 7 days administration
  Hyperemotional score (mean ± S. E.), Seven days administration, Before administration: 10.2 ± 1.1
[1]; dose 10 mg/kg, 1 hour to 1 hour 10 minutes after 1 day administration
  Hyperemotional score (mean ± S. E.), One day administration, After administration: 14.3 ± 1.0
[1]; dose 10 mg/kg, baseline before grouping, 12 animals
  Hyperemotional score (mean ± S. E.), One day administration, Before administration: 20.0 ± 0.0
[2]
  Time (seconds) stayed on closed arm (mean ± S. E.): 196.0 ± 19.8 s
  Time (seconds) stayed on open arm (mean ± S. E.): 72.7 ± 18.3 s

— patent publication US9517221B2, “(2R)-2-propyloctanoic acid for functional brain disease” (ONO PHARMACEUTICAL CO., LTD., priority 2006, dated 2016)
